Test results taken from patent US20160220569A1, “CDK4/6 Inhibitor Dosage Formulations For The Protection Of Hematopoietic Stem And Progenitor Cells During Chemotherapy” (G1 Therapeutics, Inc., priority 2015, published 2016).
Like-named read-outs stand apart in the source and are kept apart here.

Assay: Single escalating dose IV infusion pharmacokinetics in healthy volunteers (noncompartmental)
Assay type: in vivo, human
Conditions: human, plasma; for concentration at 24.5 h: read-out: concentration at 24.5 hours after the start of infusion; for concentration at 12.5 h: Time 12.50 h
Description: Forty-five subjects have enrolled in the study.
Analysis of plasma concentration versus time data for calculation of standard pharmacokinetic (PK) parameters following intravenous infusion administration was conducted using Phoenix WinNonlin version 6.3 using a nominal infusion duration and scheduled blood sampling times. Random subject numbers were assigned by the bioanalytical laboratory to retain the blind.
(§1) Analysis of plasma concentration versus time data for calculation of standard pharmacokinetic (PK) parameters following intravenous infusion administration was conducted using Phoenix WinNonlin version 6.3 using a nominal infusion duration and scheduled blood sampling times.
as §1

[1] = both sexes, iv, 48 mg/m2, Cohort 4, 48 mg/m^2 IV, r6-8=Subjects 1-3,r10=Mean,r12=Min,r13=Median,r14=Max,r16=Geometric Mean
[2] = both sexes, iv, 48 mg/m^2, Compound 1 Concentration, Cohort 4, 48 mg/m^2 IV, r7-9=Subjects 1-3,r11=Mean,r13=Min,r14=Median,r15=Max,r17=Geometric Mean
[3] = both sexes, iv, 96 mg/m^2, Cohort 5, 96 mg/m^2, 30-minute IV infusion, noncompartmental, subjects 1-6, Mean, Min, Median, Max, Geometric Mean
[4] = both sexes, iv, 96 mg/m^2, Compound 1 Concentration, Cohort 5, 96 mg/m^2 IV, r7-12=Subjects 1-6,r14=Mean,r16=Min,r17=Median,r18=Max,r20=Geometric Mean

Compound: CN1CCN(c2ccc(Nc3ncc4cc5n(c4n3)C3(CCCCC3)CNC5=O)nc2)CC1 [Compound 1, 2′-((5-(4-methylpiperazin-1-yl)pyridin-2-yl)amino)-7′,8′-dihydro-6′H-spiro[cyclohexane-1,9′-pyrazino[1′,2′:1,5]pyrrolo[2,3-d]pyrimidin]-6′-one]
- Cmax (both sexes, iv, 48 mg/m2, Cohort 4, 48 mg/m^2 IV, mean, read-out: Cmax averaged): 224 ng/mL
- Tmax (both sexes, iv, 48 mg/m2, Cohort 4, 48 mg/m^2 IV, median, read-out: median Tmax): 0.5 h
- AUC(0-t) [1]: 453 ng·h/mL
- MRT inf [1]: 8.08 h
- AUC(0-inf) (both sexes, iv, 48 mg/m2, Cohort 4, 48 mg/m^2 IV, r6-8=Subjects 1-3,r10=Mean,r12=Min,r13=Median,r14=Max,r16=Geometric Mean, read-out: AUCinf): 499 ng·h/mL
- Cmax (both sexes, iv, 48 mg/m2, Cohort 4, 48 mg/m^2 IV, r6-8=Subjects 1-3,r10=Mean,r12=Min,r13=Median,r14=Max,r16=Geometric Mean, read-out: Cmax): 224 ng/mL
- Tmax (both sexes, iv, 48 mg/m2, Cohort 4, 48 mg/m^2 IV, r6-8=Subjects 1-3,r10=Mean,r12=Min,r13=Median,r14=Max,r16=Geometric Mean, read-out: Tmax): 0.417 h
- half-life (both sexes, iv, 48 mg/m2, Cohort 4, 48 mg/m^2 IV, range over subjects, read-out: Half-lives range): 7.24 to 10.9 h
- concentration at 72 h (both sexes, iv, 48 mg/m^2, Cohort 4, 48 mg/m^2 IV, one subject measurable, read-out: concentration at 72 hours after the EOI): 0.76 ng/mL
- concentration at 24.5 h (both sexes, iv, 48 mg/m^2, Cohort 4, 48 mg/m^2 IV, range over 3 subjects): 2.08 to 4.66 ng/mL
- concentration at 0.25 h [2]: 192 ng/mL
- concentration at 0.75 h (both sexes, iv, 48 mg/m^2, Compound 1 Concentration, Cohort 4, 48 mg/m^2 IV, Time 0.75 h, r7-9=Subjects 1-3,r11=Mean,r13=Min,r14=Median,r15=Max,r17=Geometric Mean): 107 ng/mL
- concentration at 1 h (both sexes, iv, 48 mg/m^2, Compound 1 Concentration, Cohort 4, 48 mg/m^2 IV, Time 1.00 h, r7-9=Subjects 1-3,r11=Mean,r13=Min,r14=Median,r15=Max,r17=Geometric Mean): 81.9 ng/mL
- concentration at 2.5 h (both sexes, iv, 48 mg/m^2, Compound 1 Concentration, Cohort 4, 48 mg/m^2 IV, Time 2.50 h, r7-9=Subjects 1-3,r11=Mean,r13=Min,r14=Median,r15=Max,r17=Geometric Mean): 34.2 ng/mL
- concentration at 3.5 h (both sexes, iv, 48 mg/m^2, Compound 1 Concentration, Cohort 4, 48 mg/m^2 IV, Time 3.50 h, r7-9=Subjects 1-3,r11=Mean,r13=Min,r14=Median,r15=Max,r17=Geometric Mean): 27.6 ng/mL
- concentration at 6.5 h (both sexes, iv, 48 mg/m^2, Compound 1 Concentration, Cohort 4, 48 mg/m^2 IV, Time 6.50 h, r7-9=Subjects 1-3,r11=Mean,r13=Min,r14=Median,r15=Max,r17=Geometric Mean): 17 ng/mL
- concentration at 8.5 h (both sexes, iv, 48 mg/m^2, Compound 1 Concentration, Cohort 4, 48 mg/m^2 IV, Time 8.50 h, r7-9=Subjects 1-3,r11=Mean,r13=Min,r14=Median,r15=Max,r17=Geometric Mean): 12.1 ng/mL
- concentration at 12.5 h [2]: 8.36 ng/mL
- AUC(0-inf) (both sexes, iv, 96 mg/m2, Cohort 5, 96 mg/m^2 IV, mean, read-out: AUCinf averaged): 1320 ng·h/mL
- Cmax (both sexes, iv, 96 mg/m2, Cohort 5, 96 mg/m^2 IV, mean, read-out: Cmax averaged): 900 ng/mL
- half-life (both sexes, iv, 96 mg/m2, Cohort 5, 96 mg/m^2 IV, mean, read-out: Half-lives averaged (converted)): 8.62 h
- Tmax (both sexes, iv, 96 mg/m2, Cohort 5, 96 mg/m^2 IV, median, read-out: median Tmax): 0.375 h
- half-life (both sexes, iv, 96 mg/m2, Cohort 5, 96 mg/m^2 IV, range over subjects, read-out: Half-lives range): 6.97 to 10.9 h
- AUC(0-t) [3]: 1530 ng·h/mL
- MRT inf [3]: 4.36 h
- AUC(0-inf) (both sexes, iv, 96 mg/m^2, Cohort 5, 96 mg/m^2, 30-minute IV infusion, noncompartmental, subjects 1-6, Mean, Min, Median, Max, Geometric Mean, read-out: AUCinf): 1590 ng·h/mL
- Cmax (both sexes, iv, 96 mg/m^2, Cohort 5, 96 mg/m^2, 30-minute IV infusion, noncompartmental, subjects 1-6, Mean, Min, Median, Max, Geometric Mean, read-out: Cmax): 949 ng/mL
- Tmax (both sexes, iv, 96 mg/m^2, Cohort 5, 96 mg/m^2, 30-minute IV infusion, noncompartmental, subjects 1-6, Mean, Min, Median, Max, Geometric Mean, read-out: Tmax): 0.5 h
- half-life (both sexes, iv, 96 mg/m^2, Cohort 5, 96 mg/m^2, 30-minute IV infusion, noncompartmental, subjects 1-6, Mean, Min, Median, Max, Geometric Mean, read-out: t½ (converted)): 7.11 h
- concentration at 24.5 h (both sexes, iv, 96 mg/m^2, Cohort 5, 96 mg/m^2 IV, range over subjects): 3.96 to 9.59 ng/mL
- concentration at 0.25 h [4]: 843 ng/mL
- concentration at 0.5 h (both sexes, iv, 96 mg/m^2, Compound 1 Concentration, Cohort 5, 96 mg/m^2 IV, Time 0.50 h, r7-12=Subjects 1-6,r14=Mean,r16=Min,r17=Median,r18=Max,r20=Geometric Mean): 992 ng/mL
- concentration at 12.5 h [4]: 11.9 ng/mL
- Tmax (both, intravenous, […]2, Cohort 6, […]^2, 0-24.5 hr data, noncompartmental, subjects 1-6, Mean, Min, Median, Max, Geometric Mean, read-out: Tmax): 0.5 h
- Tmax (both, intravenous, […]2, Cohort 6, […]^2, 0-[…] data, noncompartmental, subjects 1-6, Mean, Min, Median, Max, Geometric Mean, read-out: Tmax): 0.5 h
- half-life (both, intravenous, […]2, Cohort 7, […]^2, N = 12, Geo. Mean, read-out: t1/2 (converted)): 14.5 h
- Tmax (both, intravenous, […]2, Cohort 7, […]^2, N = 12, Geo. Mean, read-out: tmax): 0.36 h
- half-life (both, intravenous, […]2, Cohort 7, […]^2, N = 12, min-max, read-out: t1/2 (converted)): 11.9 to 17.3 h
- Tmax (both, intravenous, […]2, Cohort 7, […]^2, N = 12, min-max, read-out: tmax): 0.25 to 0.48 h
- half-life (both, intravenous, […]^2, Cohort 6 + 7, […]^2, N = 18, Geo. Mean, read-out: t1/2 (converted)): 14.5 h
- Tmax (both, intravenous, […]^2, Cohort 6 + 7, […]^2, N = 18, Geo. Mean, read-out: tmax): 0.37 h
- half-life (both, intravenous, […]^2, Cohort 6 + 7, […]^2, N = 18, min-max, read-out: t1/2 (converted)): 11.9 to 17.3 h
- Tmax (both, intravenous, […]^2, Cohort 6 + 7, […]^2, N = 18, min-max, read-out: tmax): 0.25 to 0.48 h
- half-life (both, iv, […]2, Cohort 6, […]^2 IV, 0-24.5 hr data, mean, read-out: Half-lives averaged (converted)): 7.87 h
- half-life (both, iv, […]2, Cohort 6, […]^2 IV, 0-24.5 hr data, range over subjects, read-out: Half-lives range): 5.78 to 8.79 h
- half-life (both, iv, […]2, Cohort 6, […]^2 IV, 0-[…] data, mean, read-out: Half-lives averaging (converted)): 18 h
- half-life (both, iv, […]2, Cohort 6, […]^2 IV, 0-[…] data, range over subjects, read-out: Half-lives range): 16.9 to 20.1 h
- Tmax (both, iv, […]2, Cohort 6, […]^2 IV, median, read-out: median Tmax): 0.5 h
